Laboratory results taken from BigSolDB 2.1.

NCC(CC(=O)O)c1ccc(Cl)cc1 (stereo not given)
solubility (mole fraction)
Conditions | in ethanol | in isopropanol | in methanol | in n-propanol | in propylene glycol
293.2 K | 3.25e-05 | 5.77e-05 | 0.000123 | 5.6e-05 | 0.000216
298.2 K | 4.17e-05 | 6.36e-05 | 0.000131 | 6.26e-05 | 0.000271
303.2 K | 4.87e-05 | 7.64e-05 | 0.00014 | 6.34e-05 | 0.000345
308.2 K | 5.39e-05 | 8.09e-05 | 0.000147 | 7.82e-05 | 0.000424
313.2 K | 6.09e-05 | 8.85e-05 | 0.000173 | 8.22e-05 | 0.000485
